How the values were obtained:
[1] = Hot plate test (analgetic activity); assay type: in vivo; details: sc.
[2] = Tail Flick test (analgetic activity); assay type: in vivo; details: read-out: Tail Flick ED50
Sensitivity to light = assay type: physicochemical; details: effect of light

SMILES	ED50 [1] [mg/kg]	ED50 ([2]; sc.) [mg/kg]	Hot plate test ED50 [1] [mg/kg]	ED50 ([2]; sc) [mg/kg]	sensitivity to light (Sensitivity to light)
COc1ccc2c3c1O[C@H]1C(=NNC(N)=S)CC[C@H]4[C@@H](C2)N(C)CC[C@]314 [Dihydrocodeinone thiosemicarbazone]	1.7	0.6			
CN1CC[C@]23c4c5ccc(O)c4O[C@H]2[C@@H](O)C=C[C@H]3[C@H]1C5 [Morphine, reference compound]			3.6	5	
COc1ccc2c3c1O[C@H]1C(=NNC(N)=O)CC[C@@]4(O)[C@@H](C2)N(C)CC[C@]314 [Oxycodone semicarbazone, 14-OH-dihydrocodeinonesemicarbazone]	0.58	0.45			
COc1ccc2c3c1O[C@H]1C(=NNC(N)=O)CC[C@H]4[C@@H](C2)N(C)CC[C@]314 [Dihydrocodeinone semicarbazone, Dihydrocodeinonesemicarbazone]	0.38	0.35			
COc1ccc2c3c1O[C@H]1C(=NNc4ccccc4)CC[C@@]4(O)[C@@H](C2)N(C)CC[C@]314 [Oxycodone phenylhydrazone, 14-OH-dihydrocodeinone phenylhydrazone]	0.8	1.2			
CN1CC[C@]23c4c5ccc(O)c4O[C@H]2C(=NNc2ccc([N+](=O)[O-])cc2[N+](=O)[O-])CC[C@H]3[C@H]1C5 [Dihydromorphinone dinitrophenylhydrazone, Dihydromorphinone-2,4-dinitrophenyl hydrazone]	0.27	0.18			
COc1ccc2c3c1O[C@H]1C(=NNc4ccccc4)C=C[C@@]4(O)[C@@H](C2)N(C)CC[C@]314 [14-OH-codeinone phenylhydrazone]					sensitive to light, it turns to yellow due to the effect of light
CN1CC[C@]23c4c5ccc(O)c4O[C@H]2C(=NNc2ccc([N+](=O)[O-])cc2[N+](=O)[O-])CC[C@@]3(O)[C@H]1C5 [Oxymorphone dinitrophenylhydrazone, 14-OH-dihydromorphinone-2,4-dinitrophenyl hydrazone]	0.37	0.27			
CN1CC[C@]23c4c5ccc(O)c4O[C@H]2C(=NNC(N)=O)CC[C@@]3(O)[C@H]1C5 [Oxymorphone semicarbazone, 14-OH-dihydromorphinone semicarbazone]	0.9	0.9			
CN1CC[C@]23c4c5ccc(O)c4O[C@H]2C(=NNC(N)=O)CC[C@H]3[C@H]1C5 [Dihydromorphinone semicarbazone]	0.085	0.13			
COc1ccc2c3c1O[C@H]1C(=NNc4ccccc4)CC[C@H]4[C@@H](C2)N(C)CC[C@]314 [Dihydrocodeinone phenylhydrazone]	2.4	2.3			

Reference: US5232926A, “Morphinane-skeletoned hydrazone derivatives” (priority 1992, dated 1993)
